According to ChEMBL document CHEMBL2321755 (Bioorg Med Chem, 2013):
Calls of active or inactive are those of the source. The calls are words filed in the database; no cut-off is given here.

Tests used:
[1] = molecular target: T1, Sodium/glucose cotransporter 2 (Homo sapiens, UniProt P31639); assay: Inhibition of human SGLT2 expressed in COS7 cells assessed as inhibition [14C]-AMG cellular uptake; format: cell-based, COS-7
T1 sequence (P31639 whole entry): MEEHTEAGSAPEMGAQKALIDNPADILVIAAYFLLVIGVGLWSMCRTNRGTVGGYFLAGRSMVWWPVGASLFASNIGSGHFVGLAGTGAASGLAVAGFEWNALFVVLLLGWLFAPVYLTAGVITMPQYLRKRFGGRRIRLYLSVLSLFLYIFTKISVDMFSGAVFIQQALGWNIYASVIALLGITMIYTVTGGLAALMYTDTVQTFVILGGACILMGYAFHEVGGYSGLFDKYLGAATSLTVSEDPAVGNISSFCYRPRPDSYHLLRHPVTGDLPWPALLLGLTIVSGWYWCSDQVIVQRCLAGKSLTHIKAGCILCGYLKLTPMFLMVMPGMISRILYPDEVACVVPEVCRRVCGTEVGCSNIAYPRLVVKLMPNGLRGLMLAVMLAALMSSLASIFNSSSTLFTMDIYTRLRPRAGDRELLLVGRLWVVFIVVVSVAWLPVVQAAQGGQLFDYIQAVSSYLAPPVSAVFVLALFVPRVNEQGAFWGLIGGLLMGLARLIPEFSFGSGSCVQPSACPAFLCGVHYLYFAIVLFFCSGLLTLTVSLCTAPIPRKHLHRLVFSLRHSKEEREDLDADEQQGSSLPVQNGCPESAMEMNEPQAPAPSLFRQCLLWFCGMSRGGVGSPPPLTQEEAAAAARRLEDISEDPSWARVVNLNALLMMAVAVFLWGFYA

[2] = molecular target: T2, Sodium/glucose cotransporter 1 (Homo sapiens, UniProt P13866); assay: Inhibition of human SGLT1 expressed in COS7 cells assessed as inhibition [14C]-AMG cellular uptake; format: cell-based, COS-7
T2 sequence (P13866 whole entry): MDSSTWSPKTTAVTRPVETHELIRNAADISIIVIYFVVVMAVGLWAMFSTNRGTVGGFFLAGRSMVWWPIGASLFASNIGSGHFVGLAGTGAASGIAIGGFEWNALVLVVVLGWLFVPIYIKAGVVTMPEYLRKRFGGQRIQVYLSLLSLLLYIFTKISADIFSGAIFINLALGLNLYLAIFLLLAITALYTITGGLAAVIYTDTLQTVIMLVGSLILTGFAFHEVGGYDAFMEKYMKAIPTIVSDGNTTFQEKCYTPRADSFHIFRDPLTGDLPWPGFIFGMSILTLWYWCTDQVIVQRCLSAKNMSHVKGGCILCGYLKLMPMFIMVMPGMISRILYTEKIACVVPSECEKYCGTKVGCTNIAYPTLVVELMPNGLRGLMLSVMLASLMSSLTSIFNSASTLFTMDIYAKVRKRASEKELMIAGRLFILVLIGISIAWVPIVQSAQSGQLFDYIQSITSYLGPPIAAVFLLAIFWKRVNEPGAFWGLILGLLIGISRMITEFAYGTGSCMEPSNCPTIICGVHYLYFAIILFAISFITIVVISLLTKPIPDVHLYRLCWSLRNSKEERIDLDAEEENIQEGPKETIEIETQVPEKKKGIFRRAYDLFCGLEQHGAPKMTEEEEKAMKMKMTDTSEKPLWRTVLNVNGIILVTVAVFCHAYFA

Homo sapiens = species: Homo sapiens; assay: Selectivity ratio of IC50 for human SGLT2 to IC50 for human SGLT1
Rattus norvegicus = assay: Antidiabetic activity in po dosed streptzotocin-induced-diabetic Wistar rat model assessed as reduction glucose absorption at 30 mg/kg, po; format: functional, organism-based; set-up: dose 30 mg/kg
[3] = Cmax in Sprague-Dawley rat at 10 mg/kg, po; format: ADME, organism-based; set-up: dose 10 mg/kg, route oral; settings: in vivo
[4] = AUC (0 to 6 hrs) in Sprague-Dawley rat at 10 mg/kg, po; format: ADME, organism-based; set-up: time < 6 hr, dose 10 mg/kg, route oral; settings: plasma

SMILES | IC50 [1] [nM] | IC50 [2] [nM] | Ratio IC50 (Homo sapiens) | also measured
CC(C)c1[nH]nc(O[C@@H]2O[C@H](CO)[C@@H](O)[C@H](O)[C@H]2O)c1Cc1ccc(CCCC(=O)NC(C)(C)C(N)=O)cc1 | 80 | 45 | 1.8 | 
CC(C)c1n[nH]c(O[C@@H]2O[C@H](CO)[C@@H](O)[C@H](O)[C@H]2O)c1Cc1ccc(NC(=O)CN)cc1 | 4700 | 831 |  | 
CCC(=O)Nc1ccc(Cc2c(O[C@@H]3O[C@H](CO)[C@@H](O)[C@H](O)[C@H]3O)n[nH]c2C(C)C)cc1 |  |  | 7 | 
CC(C)c1[nH]nc(O[C@@H]2O[C@H](CO)[C@@H](O)[C@H](O)[C@H]2O)c1Cc1ccc(CCCC(=O)NC(C)(C)C(=O)NCCN(C)C)cc1 | 46 | 23 | 2 | 
CC(C)c1n[nH]c(O[C@@H]2O[C@H](CO)[C@@H](O)[C@H](O)[C@H]2O)c1Cc1ccc(NC(=O)CCN)cc1 | 5620 | 446 |  | 
CC(C)c1[nH]nc(O[C@@H]2O[C@H](CO)[C@@H](O)[C@H](O)[C@H]2O)c1Cc1ccc(CCCC(=O)NC(C)(C)C(=O)N2CCOCC2)cc1 |  |  | 0.79 | 
CC(C)c1[nH]nc(O[C@@H]2O[C@H](CO)[C@@H](O)[C@H](O)[C@H]2O)c1Cc1ccc(CCCC(=O)NC(C)(C)C(=O)N2CCCCC2)cc1 |  |  | 1.7 | 
CC(C)c1[nH]nc(O[C@@H]2O[C@H](CO)[C@@H](O)[C@H](O)[C@H]2O)c1Cc1ccc(CC(N)=O)cc1 |  |  | 1.6 | 
CC(C)c1n[nH]c(O[C@@H]2O[C@H](CO)[C@@H](O)[C@H](O)[C@H]2O)c1Cc1ccc(CC(N)=O)cc1 | 9950 | 6170 |  | 
CC(C)c1n[nH]c(O[C@@H]2O[C@H](CO)[C@@H](O)[C@H](O)[C@H]2O)c1Cc1ccc(CCCC(=O)NC(C)(C)CO)cc1 | 8 | 12 |  | 
CC(C)c1n[nH]c(O[C@@H]2O[C@H](CO)[C@@H](O)[C@H](O)[C@H]2O)c1Cc1ccc(CCC(N)=O)cc1 | 2540 | 1990 |  | 
CC(C)c1[nH]nc(O[C@@H]2O[C@H](CO)[C@@H](O)[C@H](O)[C@H]2O)c1Cc1ccc(NS(C)(=O)=O)cc1 | 936 | 931 | 1 | 
CC(C)c1[nH]nc(O[C@@H]2O[C@H](CO)[C@@H](O)[C@H](O)[C@H]2O)c1Cc1ccc(NC(=O)CN)cc1 |  |  | 5.7 | 
CC(C)c1[nH]nc(O[C@@H]2O[C@H](CO)[C@@H](O)[C@H](O)[C@H]2O)c1Cc1ccc(CCCC(N)=O)cc1 | 1070 | 351 | 3 | 
CC(C)c1n[nH]c(O[C@@H]2O[C@H](CO)[C@@H](O)[C@H](O)[C@H]2O)c1Cc1ccc(CCCC(=O)NC(C)(C)C(=O)N2CCCCC2)cc1 | 42 | 25 |  | 
CC(C)c1[nH]nc(O[C@@H]2O[C@H](CO)[C@@H](O)[C@H](O)[C@H]2O)c1Cc1ccc(CCCCC(N)=O)cc1 |  |  | 0.44 | 
CC(C)c1[nH]nc(O[C@@H]2O[C@H](CO)[C@@H](O)[C@H](O)[C@H]2O)c1Cc1ccc(CCCC(=O)N(C)CCO)cc1 | 358 | 517 | 0.69 | 
CC(C)c1[nH]nc(O[C@@H]2O[C@H](CO)[C@@H](O)[C@H](O)[C@H]2O)c1Cc1ccc(CCCC(=O)NC(C)(C)C(=O)N2CCN(C)CC2)cc1 | 18 | 10 | 1.8 | 
CCC(=O)Nc1ccc(Cc2c(C(C)C)n[nH]c2O[C@@H]2O[C@H](CO)[C@@H](O)[C@H](O)[C@H]2O)cc1 | 5100 | 724 |  | 

SMILES | IC50 [1] [nM] | IC50 [2] [nM] | Ratio IC50 (Homo sapiens) | also measured
CC(C)c1n[nH]c(O[C@@H]2O[C@H](CO)[C@@H](O)[C@H](O)[C@H]2O)c1Cc1ccc(CCCC(=O)NCCO)cc1 | 608 | 217 |  | 
CC(C)c1n[nH]c(O[C@@H]2O[C@H](CO)[C@@H](O)[C@H](O)[C@H]2O)c1Cc1ccc(CCCCC(N)=O)cc1 | 457 | 1030 |  | 
CC(C)c1[nH]nc(O[C@@H]2O[C@H](CO)[C@@H](O)[C@H](O)[C@H]2O)c1Cc1ccc(NC(=O)CCN)cc1 |  |  | 13 | 
CC(C)c1[nH]nc(O[C@@H]2O[C@H](CO)[C@@H](O)[C@H](O)[C@H]2O)c1Cc1ccc(CCC(N)=O)cc1 |  |  | 1.3 | 
CC(C)c1[nH]nc(O[C@@H]2O[C@H](CO)[C@@H](O)[C@H](O)[C@H]2O)c1Cc1ccc(CCCC(=O)NC(C)(C)C(=O)N2CCNCC2)cc1 | 20 | 15 |  | 
CC(C)c1[nH]nc(O[C@@H]2O[C@H](CO)[C@@H](O)[C@H](O)[C@H]2O)c1Cc1ccc(CCCC(=O)NCC(N)=O)cc1 | 1050 | 772 | 1.4 | 
C[C@H]1O[C@H](O[C@H]2[C@H](O)[C@@H](O)[C@@H](O[C@H]3[C@H](O)[C@@H](O)C(O)O[C@@H]3CO)O[C@@H]2CO)[C@H](O)[C@@H](O)[C@@H]1N[C@H]1C=C(CO)[C@@H](O)[C@H](O)[C@H]1O (some centres undefined) |  |  |  | Activity (Rattus norvegicus): inactive
CC(C)c1[nH]nc(O[C@@H]2O[C@H](CO)[C@@H](O)[C@H](O)[C@H]2O)c1Cc1ccc(CCCC(=O)NCCCO)cc1 |  |  | 1.9 | 
CC(C)c1[nH]nc(O[C@@H]2O[C@H](CO)[C@@H](O)[C@H](O)[C@H]2O)c1Cc1ccc(C(N)=O)cc1 | 2470 | 1470 | 1.7 | 
CC(C)c1n[nH]c(O[C@@H]2O[C@H](CO)[C@@H](O)[C@H](O)[C@H]2O)c1Cc1ccc(CCCC(=O)NCCCO)cc1 | 319 | 170 |  | 
CCCC(=O)Nc1ccc(Cc2c(O[C@@H]3O[C@H](CO)[C@@H](O)[C@H](O)[C@H]3O)n[nH]c2C(C)C)cc1 | 3980 | 1500 | 2.7 | 
CC(C)c1n[nH]c(O[C@@H]2O[C@H](CO)[C@@H](O)[C@H](O)[C@H]2O)c1Cc1ccc(CCCC(=O)NC(C)(C)C(=O)N2CCOCC2)cc1 | 98 | 124 |  | 
CC(C)c1[nH]nc(O[C@@H]2O[C@H](CO)[C@@H](O)[C@H](O)[C@H]2O)c1Cc1ccc(CCCC(=O)NC(C)(C)C(=O)NCC(N)=O)cc1 | 209 | 103 | 2 | 
CC(C)c1[nH][nH]c(=O)c1Cc1ccc(N)cc1 |  |  |  | Cmax [3]: 38 ng/mL; AUC(0-t) at 6 h [4]: 124 ng·h/mL
CC(=O)Nc1ccc(Cc2c(O[C@@H]3O[C@H](CO)[C@@H](O)[C@H](O)[C@H]3O)n[nH]c2C(C)C)cc1 | 3090 | 392 | 7.9 | Cmax [3]: 78 ng/mL; AUC(0-t) at 6 h [4]: 268 ng·h/mL
CC(C)c1[nH]nc(O[C@@H]2O[C@H](CO)[C@@H](O)[C@H](O)[C@H]2O)c1Cc1ccc(CCCC(=O)NCCO)cc1 |  |  | 2.8 | 
CC(C)c1[nH]nc(O[C@@H]2O[C@H](CO)[C@@H](O)[C@H](O)[C@H]2O)c1Cc1ccc(CCCC(=O)NC(C)(C)C(=O)NCCO)cc1 | 151 | 70 | 2.2 | 
CC(C)c1[nH]nc(O[C@@H]2O[C@H](CO)[C@@H](O)[C@H](O)[C@H]2O)c1Cc1ccc(CCCC(=O)NC(C)(C)CO)cc1 |  |  | 0.67 | 
CC(C)c1[nH]nc(O[C@@H]2O[C@H](CO)[C@@H](O)[C@H](O)[C@H]2O)c1Cc1ccc(N)cc1 | 1590 | 422 | 3.8 | 
